Results reported in the supplement of paper PMC9763283.

Legend:
Assay in all cases: area under growth-rate inhibition curve (AUC GRI) (dimensionless (GR-based AUC)); higher = less growth inhibition
Conditions in all cases: exposure time: 72 h; concentrations: 0.1, 1, 10 uM
BT474-LTR = tested on: BT474-LTR
Summary of the method: (§1)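 Nuclear counts from Hoechst 33342- or DAPI-stained images were used to estimate the area under the growth-rate inhibition curve, with growth corrected by reference to untreated and DMSO-treated plates and starting plates. The six breast cancer cell line models, comprising two triple-negative lines and parental and drug-combination-resistant HER2+ lines, were treated with compound at 0.1, 1 or 10 µM for 72 h. Data came from 2 biological replicates, using Day 0 and Day 3 plates.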

SKBR3-LTR = tested on: SKBR3-LTR
Summary of the method: as §1

MDA-MB-231 = tested on: MDA-MB-231
Summary of the method: as §1

BT474-P = tested on: BT474-P
Summary of the method: as §1

MDA-MB-468 = tested on: MDA-MB-468
Summary of the method: as §1

SKBR3-P = tested on: SKBR3-P
Summary of the method: as §1

| SMILES | area under growth-rate inhibition curve (BT474-LTR) | area under growth-rate inhibition curve (SKBR3-LTR) | area under growth-rate inhibition curve (MDA-MB-231) | area under growth-rate inhibition curve (BT474-P) | area under growth-rate inhibition curve (MDA-MB-468) | area under growth-rate inhibition curve (SKBR3-P) |
| --- | --- | --- | --- | --- | --- | --- |
| Cc1nn(-c2ccccc2)c(C)c1C=NN1CCN(Cc2ccccc2)CC1 [SANT-1] | 1.08 | 1.05 | 0.992 | 0.98 | 1.02 | 1.04 |
| O=C(O)c1ccc2ccccc2c1O.OCc1cc(C(O)CNCCCCCCOCCCCc2ccccc2)ccc1O (stereo not given) [Salmeterol Xinafoate] | 0.877 | 0.993 | 0.832 | 0.905 | 0.875 | 0.95 |
| CN1C2CC(O)CC1C1OC12 (stereo not given) [Scopine] | 1.08 | 1.05 | 1.07 | 1.05 | 1.05 | 1.03 |
| Br.CN1C2CC(OC(=O)C(CO)c3ccccc3)CC1C1OC12 (stereo not given) [Scopolamine HBr] | 1.08 | 1.09 | 1.03 | 1.05 | 1.04 | 1.01 |
| CN[C@@H]1CC[C@@H](c2ccc(Cl)c(Cl)c2)c2ccccc21.[Cl-].[H+] [Sertraline HCl] | 0.972 | 0.981 | 0.918 | 0.935 | 0.907 | 0.963 |
| C[C@H](Cc1cc2c(c(C(N)=O)c1)N(CCCO)CC2)NCCOc1ccccc1OCC(F)(F)F [Silodosin] | 1.1 | 1.1 | 1.04 | 1.06 | 1.05 | 1.03 |
| Cc1cc2c(cc1CC(=O)c1sccc1S(=O)(=O)[N-]c1onc(C)c1Cl)OCO2.[Na+] [Sitaxentan sodium] | 1.08 | 1.07 | 1.04 | 1.06 | 1.04 | 1.04 |
| CCOc1ccc(Cc2cc([C@@H]3O[C@H](SC)[C@@H](O)[C@H](O)[C@H]3O)ccc2Cl)cc1 [Sotagliflozin (LX4211)] | 1.06 | 1.1 | 1.01 | 1.02 | 0.996 | 1.02 |
| CC(C)NCC(O)c1ccc(NS(C)(=O)=O)cc1.[Cl-].[H+] (stereo not given) [Sotalol] | 1.09 | 1.07 | 1.03 | 1.05 | 1.05 | 1.03 |
| CNS(=O)(=O)Cc1ccc2[nH]cc(CCN(C)C)c2c1.O=C(O)CCC(=O)O [Sumatriptan Succinate] | 1.1 | 1.06 | 1.02 | 1.05 | 1.03 | 1.04 |
| Cc1ccc(-n2nccn2)c(C(=O)N2CCN(c3nc4cc(Cl)ccc4o3)CCC2C)c1 (stereo not given) [Suvorexant (MK-4305)] | 1.05 | 1.04 | 1.02 | 1.02 | 0.955 | 0.995 |
| CNCC(O)c1ccc(O)cc1.Cl (stereo not given) [Synephrine HCl] | 1.11 | 1.07 | 0.993 | 1.05 | 1.05 | 1.01 |
| CNCC(O)c1ccc(O)cc1 (stereo not given) [Synephrine] | 1.06 | 1.07 | 0.993 | 1.05 | 1.05 | 1.03 |
| CC/C(=C(\c1ccccc1)c1ccc(OCCN(C)C)cc1)c1ccccc1.O=C(O)CC(O)(CC(=O)O)C(=O)O [Tamoxifen Citrate] | 0.896 | 0.982 | 0.958 | 0.851 | 0.952 | 0.938 |
| CCC(c1cccc(O)c1)C(C)CN(C)C (stereo not given) [Tapentadol] | 1.01 | 1 | 0.986 | 1.01 | 1 | 1.01 |
| COc1cc2nc(N3CCN(C(=O)C4CCCO4)CC3)nc(N)c2cc1OC.O.[Cl-].[H+] (stereo not given) [Terazosin HCl] | 1.09 | 1.1 | 1.02 | 1.02 | 1.04 | 1.03 |
| COc1cc2nc(N3CCN(C(=O)C4CCCO4)CC3)nc(N)c2cc1OC.[Cl-].[H+] (stereo not given) [Terazosin] | 1.07 | 1.01 | 0.999 | 1.02 | 0.998 | 1.03 |
| [Cl-].[H+].c1ccc2c(c1)CCCC2C1=NCCN1 (stereo not given) [Tetrahydrozoline HCl] | 1.07 | 1.02 | 1.01 | 1.03 | 1.03 | 1.02 |
| CN1c2ccccc2C(NCCCCCCC(=O)[O-])c2ccc(Cl)cc2S1(=O)=O.[Na+] (stereo not given) [Tianeptine sodium] | 1.09 | 1.02 | 1.02 | 1.06 | 1.05 | 1.01 |
| CCCSc1nc(NC2CC2c2ccc(F)c(F)c2)c2nnn(C3CC(OCCO)C(O)C3O)c2n1 (stereo not given) [Ticagrelor] | 0.984 | 0.968 | 0.975 | 0.922 | 0.975 | 0.995 |
